# Patent US11547709B2, “Methods of treating disorders associated with castor” (ST. JUDE CHILDREN'S RESEARCH HOSPITAL, INC., priority 2017, dated 2023)
# Legend:
# Type in all cases: in vivo
# [1] = system: Pcca−/−(A138T) mouse model of propionic acidemia; test: Blood ammonia levels in mouse model of propionic acidemia; conditions: chow with 225 ppm PZ-2891 plus 1000 ppm Pan for 7 days vs 1000 ppm Pan alone; p=0.0032
# Experimental: Referring to FIG. 2, a mouse model of propionic acidemia, the Pcca−/−(A138T) (Guensel et al. (2013) Mol. Ther. 21: 1316-1323), was fed chow containing either 1000 ppm pantothenate (Pan) or 225 ppm PZ-2891 plus 1000 ppm Pan for 7 days. Blood was drawn from 6 mice per group and blood ammonia levels were determined using a GM7 Micro-Stat Analyser (Analox Instruments, www.analox.com) and the Analox Blood Ammonia Reagent kit according to the manufacturer's instructions. Statistical analysis was performed using the Students unpaired t-test and p=0.0032.
# [2] = system: Pcca−/−(A138T) mouse model of propionic acidemia; test: Plasma acyl-carnitine levels in Pcca mouse model; conditions: chow with 1000 ppm pantothenate plus 75 ppm PZ-3022 from day 21, plasma at 70 days
# Experimental: Referring to FIG. 6A and FIG. 6B, a mouse model of propionic acidemia, the Pcca−/−(A138T) (mouse Guensel et al. (2013) Mol. Ther. 21: 1316-23) was fed chow or chow containing 1000 ppm pantothenate plus 75 ppm PZ-3022 beginning at day 21. At 70 days, the plasma was analyzed for the levels of acyl-carnitines.
# Referring to FIG. 7, the data in FIG. 5 are presented as the C3:C2 ration of plasma carnitines.
# [3] = system: Pcca−/−(A138T) mouse model of propionic acidemia; test: Liver CoA, acetyl-CoA and propionyl-CoA levels in Pcca mouse model; conditions: chow with 1000 ppm pantothenate plus 75 ppm PZ-3022 from day 21, measured at 70 days
# Experimental: Referring to FIG. 5, a mouse model of propionic acidemia, the Pcca−/−(A138T) (mouse Guensel et al. (2013) Mol. Ther. 21: 1316-23) was fed chow or chow containing 1000 ppm pantothenate plus 75 ppm PZ-3022 beginning at day 21. At 70 days, the liver CoA, acetyl-CoA and propionyl-CoA levels were measured. The Pcca mice had lower free CoA, lower acetyl-CoA and very elevated propionyl-CoA compared to wild-type.
# [4] = system: Pcca−/−(A138T) mouse model of propionic acidemia; test: Total liver CoA levels in Pcca mouse model; conditions: chow with 1000 ppm pantothenate plus 75 ppm PZ-3022 from day 21, measured at 70 days
# Experimental: Referring to FIG. 4, a mouse model of propionic acidemia, the Pcca−/−(A138T) mouse (Guensel et al. (2013) Mol. Ther. 21: 1316-23) was fed chow or chow containing 1000 ppm pantothenate plus 75 ppm PZ-3022 beginning at day 21. At 70 days, the liver CoA levels were measured.
Compound,blood ammonia levels [1],C3:C2 ratio of plasma carnitines [2],plasma acetyl-carnitine [2],liver acetyl-CoA [3],liver free CoA [3],liver propionyl-CoA [3],liver CoA levels (total) [4]
CC(C)c1ccc(CC(=O)N2CCN(c3ccc(C#N)nn3)CC2)cc1 [PZ-2891],Reduction of Blood Ammonia Levels,–,–,–,–,–,–
N#Cc1ccc(N2CCN(C(=O)Cc3ccc(C4CC4)cc3)CC2)nn1 [PZ-3022],–,reduced the highly elevated C3:C2 ratio,elevated acetyl-carnitine,elevated free CoA and acetyl-CoA,elevated free CoA,propionyl-CoA was reduced,the CoA levels were elevated
